Experimental findings from BindingDB's records for doi:10.7270/Q28G8J4C (Broad Institute, 2009) are described below.

Usually EC50 stands for the concentration giving half of the maximal effect.

Bounds are passed on as bounds.

The assay concerns the target T1, POsterior Segregation (Caenorhabditis elegans, UniProt G5EF15).
T1 sequence (G5EF15 whole entry): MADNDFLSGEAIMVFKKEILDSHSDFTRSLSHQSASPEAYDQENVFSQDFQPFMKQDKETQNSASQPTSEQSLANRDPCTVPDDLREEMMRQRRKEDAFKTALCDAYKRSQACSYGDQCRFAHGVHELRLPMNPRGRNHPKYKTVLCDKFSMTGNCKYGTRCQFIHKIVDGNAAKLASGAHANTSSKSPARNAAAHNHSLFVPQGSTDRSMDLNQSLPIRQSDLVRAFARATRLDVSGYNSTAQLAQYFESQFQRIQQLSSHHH
Briefly: disruptors of C. elegans POS-1 RNA interaction – biochemical, fluorescence polarization, dose response (AID 1964). (In general: Polarisation of emitted light reports the rotation of a fluorescent probe.)

`CCCCOc1c(Br)cc(CN=O)cc1OCC` [3-bromo-4-butoxy-5-ethoxy-benzaldoxime] came in with an EC50 greater than 300 µM.
For the compound `O=C(Cc1nc2ccccc2n(-c2ccccc2)c1=O)c1ccccc1` [(3Z)-3-phenacylidene-1-phenyl-4H-quinoxalin-2-one], the EC50 turned out to be 78.2 µM.
`O=C(N/N=C/C1C=C(Cl)C=C([N+](=O)[O-])C1=O)c1ccccc1NS(=O)(=O)c1cccs1` (configuration not stated) [SMR000364876] had a 50% effective concentration (EC50) of 282 µM.
Consider `O=C(O)c1ccc(S(=O)(=O)N=C2C=C(Nc3ccccc3F)C(=O)c3ccccc32)cc1`, for which a half-maximal effect (EC50) was put at 117 µM.
The compound `Oc1csc(N=NCc2cccs2)n1` [2-[2-(thiophen-2-ylmethylidene)hydrazinyl]-1,3-thiazol-4-one] gave a half-maximal effective concentration (EC50) greater than 300 µM.
`Cc1cc(C=C2C(=O)NC(=O)N(c3ccccc3)C2=O)c(C)n1-c1ccc(F)cc1` [(5Z)-5-[[1-(4-fluorophenyl)-2,5-dimethyl-3-pyrrolyl]methylidene]-1-phenyl-1,3-diazinane-2,4,6-trione]: the EC50 was found to be 101 µM.
`O=C(NN=CC1=CC(=O)C(=O)CC1)NN=CC1=CC(=O)C(=O)CC1` [1,3-bis[[(Z)-(3-hydroxy-4-oxocyclohexa-2,5-dien-1-ylidene)methyl]amino]urea] yielded an EC50 of 16.2 µM. Against the preceding compound, the EC50 is about 6.2-fold lower.
As for `Cc1c(C(=O)O)cccc1-n1c(C)cc(CN=Nc2ccc([N+](=O)[O-])cn2)c1C`, the EC50 is greater than 300 µM.
The compound `CCOC(=O)C1C(=O)C(=Cc2cn(CC(=O)N3CCCC3)c3ccccc23)S/C1=N\c1ccccc1` (configuration not stated) [(5Z)-2-anilino-4-keto-5-[[1-(2-keto-2-pyrrolidino-ethyl)indol-3-yl]methylene]thiophene-3-carboxylic acid ethyl ester] had an EC50 of 47.5 µM.
`CCOc1ccc(N=C(C(=C(Cl)C(Cl)Cl)[N+](=O)[O-])n2cncn2)cc1` [MLS000519210]: the response was half-maximal at 46.9 µM (EC50).
`COc1ccc(C(=O)Nc2nnc(CC(=O)NN=Cc3ccc(O)cc3O)s2)cc1` [4-methoxy-N-[5-[2-oxidanylidene-2-[2-[(E)-(2-oxidanyl-4-oxidanylidene-cyclohexa-2,5-dien-1-ylidene)methyl]hydrazinyl]ethyl]-1,3,4-thiadiazol-2-yl]benzamide]: the concentration for a half-maximal effect (EC50) stood at 125 µM.
Regarding `O=C1CCCC2=Nc3cc(Cl)ccc3SC12` (configuration not stated) [MLS000333002], it took 18.4 µM to reach a half-maximal effect (EC50).
